Measured values from patent US20230067609A1, “ENDOPHYTIC MICROBES FOR GROWTH PROMOTION OF CROP PLANTS AND SUPPRESSION OF AGGRESSIVE INVASIVE PLANT SPECIES, BIOHERBICIDES COMPRISING THE SAME AND METHODS OF USE THEREOF” (priority 2018, published 2023).

Legend:
Assay type in all cases: in vivo
Poa annua = experiment: Screen of short-chain organic acids for effects on roots, agarose medium, seeds inoculated with Pseudomonas strain SLB4; conditions: for Inhibitory Activity On Germination / Inhibitory Activity On Gravitropism / Inhibitory Activity On Hair Length / Inhibitory Activity On Root Length / Inhibitory Activity On Bact. Entry: organic acids 0-1 mM in 0.7% agarose, 7 days; for Inhibitory Activity On Bact. Entry: Pseudomonas strain SLB4
Poa reptans seedlings = experiment: Seeds germinated on agarose with and without 0.05% arginine
Text: In laboratory experiments, we germinated seeds of the grass Poa reptans on agarose with and without 0.05% arginine.
This is further evidence that exposure of plants to arginine results in excess production of reactive oxygen species (ROS).

[1] = test system: Phragmites australis plants; experiment: Sodium butyrate applied to roots over a 6-week period; conditions: 10 mM applied to roots over a 6-week period

SMILES: CC(=O)O [Acetic, Acetic acid]
- seedling growth inhibition (Poa annua): seedling growth inhibition occurred
- Inhibitory Activity On Germination (Poa annua): No
- Inhibitory Activity On Gravitropism (Poa annua): No
- Inhibitory Activity On Hair Length (Poa annua): No
- Inhibitory Activity On Root Length (Poa annua): Yes
- Inhibitory Activity On Bact. Entry (Poa annua): No

SMILES: O=C(O)c1ccccc1 [Benzoic, Benzoic acid]
- seedling growth inhibition (Poa annua): seedling growth inhibition occurred
- Inhibitory Activity On Germination (Poa annua): No
- Inhibitory Activity On Gravitropism (Poa annua): Yes
- Inhibitory Activity On Hair Length (Poa annua): Yes
- Inhibitory Activity On Root Length (Poa annua): Yes
- Inhibitory Activity On Bact. Entry (Poa annua): No

SMILES: CCCC(=O)O [Butyric, Butyric acid]
- seedling growth inhibition (Poa annua): seedling growth inhibition occurred
- Inhibitory Activity On Germination (Poa annua): No
- Inhibitory Activity On Gravitropism (Poa annua): Yes
- Inhibitory Activity On Hair Length (Poa annua): Yes
- Inhibitory Activity On Root Length (Poa annua): Yes
- Inhibitory Activity On Bact. Entry (Poa annua): Yes

SMILES: O=C(O)CC(O)(CC(=O)O)C(=O)O [Citric, Citric acid]
- seedling growth inhibition (Poa annua): seedling growth inhibition occurred
- Inhibitory Activity On Germination (Poa annua): No
- Inhibitory Activity On Gravitropism (Poa annua): Yes
- Inhibitory Activity On Hair Length (Poa annua): Yes
- Inhibitory Activity On Root Length (Poa annua): Yes
- Inhibitory Activity On Bact. Entry (Poa annua): No

SMILES: CCCCCC(=O)O [Hexanoic, Hexanoic acid]
- seedling growth inhibition (Poa annua): seedling growth inhibition occurred
- Inhibitory Activity On Germination (Poa annua): No
- Inhibitory Activity On Gravitropism (Poa annua): Yes
- Inhibitory Activity On Hair Length (Poa annua): Yes
- Inhibitory Activity On Root Length (Poa annua): Yes
- Inhibitory Activity On Bact. Entry (Poa annua): No

SMILES: O=C(O)C(=O)O [Oxalic, Oxalic acid]
- seedling growth inhibition (Poa annua): seedling growth inhibition occurred
- Inhibitory Activity On Germination (Poa annua): No
- Inhibitory Activity On Gravitropism (Poa annua): Yes
- Inhibitory Activity On Hair Length (Poa annua): Yes
- Inhibitory Activity On Root Length (Poa annua): Yes
- Inhibitory Activity On Bact. Entry (Poa annua): Yes

SMILES: CCC(=O)O [Propionic, Propionic acid]
- seedling growth inhibition (Poa annua): seedling growth inhibition occurred
- Inhibitory Activity On Germination (Poa annua): No
- Inhibitory Activity On Gravitropism (Poa annua): Yes
- Inhibitory Activity On Hair Length (Poa annua): Yes
- Inhibitory Activity On Root Length (Poa annua): Yes
- Inhibitory Activity On Bact. Entry (Poa annua): Yes

SMILES: O=C(O)[C@]1(O)C[C@@H](O)[C@@H](O)[C@H](O)C1 [Quinic, Quinic acid]
- Inhibitory Activity On Germination (Poa annua): No
- Inhibitory Activity On Gravitropism (Poa annua): No
- Inhibitory Activity On Hair Length (Poa annua): No
- Inhibitory Activity On Root Length (Poa annua): No
- Inhibitory Activity On Bact. Entry (Poa annua): No

SMILES: N=C(N)NCCC[C@H](N)C(=O)O [arginine]
- chlorophylls in shoot cells (Poa reptans seedlings; 0.05% arginine): lack evidence of chlorophylls
- growth of shoots and roots (Poa reptans seedlings; 0.05% arginine in agarose, 7 days): repression of shoots and roots
- colonization of chloroplasts by bacteria (Poa reptans seedlings; 0.05% arginine, leaf cells, microscopy): all chloroplasts were colonized by actively motile bacteria
- root hairs (Poa reptans seedlings; arginine-treated seedlings): longer root hairs
- hydrogen peroxide around roots (Poa reptans seedlings; diaminobenzidine tetrahydrochloride stain): high levels of hydrogen peroxide around roots
- superoxide in roots (Poa reptans seedlings; nitro blue tetrazolium staining): higher presence of superoxide

SMILES: CCCC(=O)[O-].[Na+] [sodium butyrate]
- effects on roots and shoots [1]: suppression of root and shoot growth, reduced root branching, root browning, and increased bacterial and fungal growth on roots
